Measurements: patent US6610289B2, “Mutated herpes simplex virus type 1 thymidine kinases and uses thereof” (The Board of Trustees of the University of Arkansas, priority 1998, dated 2003)
Where two headings read alike, the source gives them in different places.

Columns and labels:
HSV-1 TK [1] = assay: Substrate screen: phosphorylation of thymidine, TMP, GCV, ACV, dC, AZT by partially purified HSV-1 TKs; format: biochemical, herpes simplex virus type 1; settings: for Product formation ACVMP: substrate ACV 50 μM; for Product formation AZTMP: substrate AZT 200 μM; for Product formation GCVMP: substrate GCV 50 μM; for Product formation TDP (TMPK activity): substrate TMP 20 μM; for Product formation dCMP: substrate dC 200 μM; for Product formation TMP: substrate thymidine 4 μM
Procedure: The activity of the purified HSV-1 TK was determined using the following standard reaction mixture for thymidine as a substrate (12): 3 μg of protein, 4 μM [^3H-methyl]thymidine (0.1 mCi/mmol), 20 mM potassium phosphate, pH 7.6, 1 mM DTT, 5 mM ATP, 5 mM MgCl2, 25 mM NaF, 40 mM KCl, and 0.5 mg/ml BSA in a total volume of 25 μl for 10 minutes at 37° C. To identify phosphorylated products, 20 μl of the reaction mixture was loaded onto a DE-81 filter and dried, washed once in 1 mM ammonium formate, twice more in 95% ethanol, and counted for radioactivity (12). Radioactivity was determined using an LKB 1214 Rackbeta liquid scintillation counter and corrected for background using controls with enzyme incubated in the absence of ATP. For TMPK activity, 20 μM [^3H-methyl]TMP was substituted for thymidine in the above assay mixture, and [^3H]TDP product was determined by separation from [^3H]TMP on thin layer PEI-cellulose plates developed in 0.35M LiCl (21). Amount of product converted to TDP was quantitated by scintillation counting of the excised TMP and TDP spots. The filter binding assay was used to quantitate the phosphorylation of [^3H]dC (200) μM and [^3H]AZT (200 μM) with the four enzymes. To compare relative enzymatic activities for [^3H]GCV (50 μM) and [^3H]ACV (50 μM), reactions were loaded onto small DE-52 columns packed in Pasteur pipettes as previously described (22).
As an initial screen for activity, each expressed HSV-1 TK enzyme was assayed for phosphorylation of the following substrates: thymidine (4 μM), TMP (20 μM), ACV (50 μM), GCV (50 μM), deoxycytidine (dC, 200 μM), or 3′-azido-2′,3′dideoxythymidine (AZT, 200 μM). Enzymatic conditions for optimal wild-type HSV-1 TK activities were utilized, thus results presented in Table 1 for each substrate were normalized to 100% values for comparative purposes. As expected, the wild-type Gln-125 HSV-1 TK efficiently phosphorylated each of these substrates. For each mutant, there was a striking decrease in their ability to phosphorylate pyrimidine nucleosides, and minimal TMPK activity for the TMP substrate.

Caspase 3 = Caspase 3 colorimetric assay; format: cell-based, human; settings: 25 μM GCV, FIG. 8
Procedure: Parental HCT-116, wild-type HSV-1TK, Asn-125TK and Glu-125TK-expressing HCT-116 cells were treated with 0 (black bars) or 25 μM GCV (gray bars) for 4 days. Cell lysates were prepared and caspase 3 assays performed using a colorimetric ApoAlert CPP32/Caspase-3 kit as per manufacturers instructions (Clontech). Relative caspase 3 activity was determined by O.D. 405 nm readings of the cleaved DEVD-pNA substrate and presented as DVEDase activity.
Caspase 3-like activity was determined in parental HCT-116 and each HSV-1 TK expressing cell line treated for 50 hrs plus or minus 25 μM GCV using an Apo-Alert CPP32/Caspase 3 Colorimetric Assay kit with the peptide substrate, DEVD-pNA, as per manufacturers instructions (Clontech Laboratories, INC.). GCV-treated and untreated cells were grown in 25 cm^2 flasks, and cell numbers were determined using a hemocytometer prior to analysis. Assays were done in triplicate with protein extracts derived from 2×10^6 cells. The amount of Caspase 3-like activities were quantitated using a Shimadzu UV/VIS spectophotometer set at 405 nm.
Caspase 3 activity was determined in different cell extracts derived from GCV-treated and control cells using a calorimetric assay with the peptide substrate DVED (SEQ ID No. 4).

HCT-116 cells = assay: DAPI-staining of apoptotic cells; format: cell-based, human; settings: 25 μM GCV, 36 or 84 hrs, FIG. 7
HSV-1 TK [2] = format: biochemical, herpes simplex virus type 1; settings: for Decrease in kcat for GCV compared to wild-type enzyme: substrate GCV
Procedure: For determination of Km values of thymidine and GCV for the four enzymes, the filter binding assay was utilized. The basic reaction components were as above, and the following enzyme concentrations, substrate ranges and times were used under linear initial velocity conditions: for [^3H]thymidine: parent Gln-125TK: 0.1 μg TK, 0.1-4 μM, 10 min; Asn-125TK: 0.2 μg TK, 0.25-10 μM, 15 min; Asp-125TK: 4 μg TK, 0.1-2.5 μM, 30 min; Glu-125TK 0.5 μg TK, 0.5-2.5 μM, 15 min. For [^3H]GCV: parent Gln-125TK: 2 μg TK, 5-100 μM, 15 min; Asn-125TK: 0.6 μg TK, 0.5-15 μM, 15 min; Asp-125TK: Not determined; Glu-125TK 4 μg TK, 50-1000 μM, 25 min. Each reaction was done in triplicate. For calculation of kinetic constants, non-linear regression Michaelis-Menten analyses were done using PSI-PLOT version 5.0 (Poly Software International).
Unlike the substrate screening assays presented in Table 1, linear velocity conditions for each enzyme and substrate were established prior to Km determinations.

HSV-1 TK [3] = target: T1, HSV-1 TK (Human herpesvirus 1, UniProt P0DTH5); settings: reference (29); cited from earlier work
T1 sequence (P0DTH5 1-376): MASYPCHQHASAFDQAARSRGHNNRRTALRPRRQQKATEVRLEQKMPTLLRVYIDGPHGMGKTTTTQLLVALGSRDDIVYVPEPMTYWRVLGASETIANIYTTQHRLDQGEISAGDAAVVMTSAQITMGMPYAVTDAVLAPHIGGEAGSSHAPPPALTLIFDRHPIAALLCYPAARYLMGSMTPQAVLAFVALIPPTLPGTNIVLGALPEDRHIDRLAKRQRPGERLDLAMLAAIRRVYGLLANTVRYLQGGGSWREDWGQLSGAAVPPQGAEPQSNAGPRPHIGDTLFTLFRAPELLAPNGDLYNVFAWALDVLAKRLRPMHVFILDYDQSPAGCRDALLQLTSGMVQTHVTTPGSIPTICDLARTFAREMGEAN

HSV-1 TK [4] = target: T1, HSV-1 TK; assay: Photoaffinity labeling with [^32P]5-azido-dUMP; format: binding, herpes simplex virus type 1; set-up: made in house; host or cells: E. coli BL21SY211 (pET-9a derived pET-TK1); settings: FIG. 1, autoradiograph
Procedure: The TMP photoaffinity analog, [^32P]5-N3dUMP, was synthesized enzymatically using HSV-1 TK, 5-azido-deoxyuridine and [g-^32P]ATP as previously described (10, 12). For photolabeling studies, 10 μg of the DE-52/heparin agarose purified HSV-TKs were incubated with 10 mM [^32P]5-N3dUMP for 10 seconds. The sample was then irradiated for 90 seconds with a hand-held UV lamp (254 nm UVP-11, Ultraviolet Products, Inc.) at a distance of 3 cm. Reactions were terminated by addition of an equal volume of 10% TCA, incubated on ice for 10 minutes, and pelleted by centrifugation at 13,000×g for 5 minutes. The protein was resuspended in a solubilization mixture (23) and separated on 10% SDS-polyacrylamide gels. Dried gels were exposed to film for 2 days.
The thymidine and TMP photoaffinity analog, [^32p]5-azido-dUMP, has proven useful as an active-site cross-linking reagent for studying HSV-1 TK (10, 12). This analog was used for photocrosslinking of the four HSV-1 TKs.

[5] = substrate ganciclovir, read-out: Km ganciclovir
[6] = substrate thymidine, read-out: Km thymidine

| Substance | Product formation ACVMP (HSV-1 TK [1]) | Product formation AZTMP (HSV-1 TK [1]) | Product formation GCVMP (HSV-1 TK [1]) | Product formation TDP (TMPK activity) (HSV-1 TK [1]) | Product formation dCMP (HSV-1 TK [1]) | Product formation TMP (HSV-1 TK [1]) | DVED-ase activity of GCV-treated cells relative to GCV-treated wild-type or Asn-125 HSV-1TK-expressing cells (Caspase 3) | Nuclear morphology of DAPI-stained nuclei after GCV (HCT-116 cells) | Decrease in kcat for GCV compared to wild-type enzyme (HSV-1 TK [2]) | kcat ganciclovir (HSV-1 TK [2]; substrate ganciclovir) | Km (HSV-1 TK [2]; [5]) | Decrease in kcat for thymidine relative to wild-type (HSV-1 TK [2]; substrate thymidine) | Increase of Km for thymidine relative to wild-type enzyme (HSV-1 TK [2]; substrate thymidine) | kcat thymidine (HSV-1 TK [2]; substrate thymidine) | Km (HSV-1 TK [2]; [6]) | Km for thymidine lower than that of GCV (HSV-1 TK [3]) | Photoincorporation of [^32P]5-azido-dUMP (HSV-1 TK [4]) | Metabolism of GCV and ACV (in words) (HSV-1 TK [1]; GCV 50 μM, ACV 50 μM) | Change of kcat for thymidine relative to wild-type (in words) (HSV-1 TK [2]; substrate thymidine) |
| --- | --- | --- | --- | --- | --- | --- | --- | --- | --- | --- | --- | --- | --- | --- | --- | --- | --- | --- | --- |
| Glu-125 | 7 % of wild-type Gln-125 | 48 % of wild-type Gln-125 | 5 % of wild-type Gln-125 | 7 % of wild-type Gln-125 | 0.2 % of wild-type Gln-125 | 43 % of wild-type Gln-125 | three times lower | fewer swelled nuclei and little evidence of apoptotic nuclei | 12 fold | 0.04 s⁻¹ | 473 µM | 20 fold | approximately 3 fold | 0.003 s⁻¹ | 3 µM | – | – | – | – |
| Gln-125 (WT): wild-type herpes simplex virus type 1 thymidine kinase with glutamine at position 125, parent enzyme [reference compound] | 100 % of wild-type Gln-125 | 100 % of wild-type Gln-125 | 100 % of wild-type Gln-125 | 100 % of wild-type Gln-125 | 100 % of wild-type Gln-125 | 100 % of wild-type Gln-125 | – | progressive increases in condensed and fragmented nuclei characteristic of apoptosis | – | 0.47 s⁻¹ | 69 µM | – | – | 0.06 s⁻¹ | 0.9 µM | 70-100 times | photoincorporated efficiently | – | – |
| Asn-125 | 92 % of wild-type Gln-125 | 9 % of wild-type Gln-125 | 85 % of wild-type Gln-125 | 6 % of wild-type Gln-125 | 0.2 % of wild-type Gln-125 | 22 % of wild-type Gln-125 | – | progressive increases in condensed and fragmented nuclei characteristic of apoptosis | 6 fold | 0.08 s⁻¹ | 50 µM | – | ~20 fold | 0.13 s⁻¹ | 20 µM | – | – | retained most of these phosphorylation activities | doubled |
